Measured values published in patent US6906098B2, “Mixed steroidal 1,2,4,5-tetraoxane compounds and methods of making and using thereof” (priority 2002, dated 2005).
Values after ≈ are worked out from the molar mass of the structure shown. Values joined by “and” are separate entries in the source; they are usually repeats but may differ in a detail not shown here. Equal values may be shown once. Read-outs that look alike come from different tables or passages of the source.

Tests used:
VERO cells [1] = test: cells; details: Chlorocebus sabaeus, Table 5
M. tuberculosis H37Rv = test: Minimum inhibitory concentration (MIC) in the MABA; assay type: cell-based, Mycobacterium tuberculosis
How it was run: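 Run under the NIAID TAACF screening program against M. tuberculosis by fluorescence read-out. MIC taken as the lowest concentration giving 90% reduction in fluorescence relative to controls.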

[2] = test system: Mycobacterium tuberculosis H37Rv (ATCC 27294); test: Primary screen, Microplate Alamar Blue Assay (MABA), percent inhibition; assay type: cell-based; details: Table 5, Alamar assay, primary screening at 6.25 μg/ml
How it was run: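 Single-concentration screen at 6.25 μg/ml (or molar equivalent of the heaviest congener in a series) against H37Rv grown in BACTEC 12B medium. Growth read by Microplate Alamar Blue Assay, reported as percent inhibition.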

VERO cells [3] = details: for IC50: Table 5, VERO cells
[4] = test system: Plasmodium falciparum chloroquine-resistant strain W2; test: microbe, parasite or virus in culture; assay type: cell-based; details: for Strain W2 IC50: growth inhibition, chloroquine-resistant strain W2, 66 h incubation
[5] = test system: Plasmodium falciparum chloroquine-susceptible strain D6; test: In vitro antimalarial drug susceptibility assay (radiolabeled hypoxanthine incorporation), strain D6; assay type: cell-based; details: growth inhibition, chloroquine-susceptible strain D6, 66 h incubation
[6] = test system: D6 and W2 P. falciparum clones; assay type: cell-based, Plasmodium falciparum; details: IC50 (W2)/IC50 (D6) ratio
[7] = Table 5, Alamar assay, M. tuberculosis H37Rv
[8] = ratio of IC50 in VERO cells to MIC (M. tuberculosis H37Rv)
[9] = Mycobacterium tuberculosis, H37RV, Table 5, Alamar assay, M. tuberculosis H37Rv, read-out: MIC

| SMILES | IC50 (VERO cells [1]) | MIC (M. tuberculosis H37Rv; [7]) | % Inhib [2] | SI (selectivity index) (VERO cells [3]; [8]) | Strain W2 IC50 [4] | Strain D6 IC50 [5] | Resistance Index [6] | MIC (M. tuberculosis H37Rv; [9]) | inhibition at 6.25 µg/mL ([2]; Mycobacterium tuberculosis, read-out: % Inhib) | IC50 ([4]; Plasmodium falciparum, W2, 66 h, read-out: Strain W2 IC50, growth inhibition, chloroquine-resistant strain W2, 66 h incubation) | IC50 (VERO cells [3]) | MIC (M. tuberculosis H37Rv; Mycobacterium tuberculosis, H37RV, Table 3, H37Rv, read-out: MIC) | SI (selectivity index) (VERO cells [3]) |
| --- | --- | --- | --- | --- | --- | --- | --- | --- | --- | --- | --- | --- | --- |
| CCC1CCC2(CC1)OOC1(CC[C@]3(C)C4C[C@H](OC(C)=O)[C@@]5(C)C(CC[C@@H]5C(C)CCC(=O)O)C4[C@H](OC(C)=O)C[C@@H]3C1)OO2 (single isomer, unassigned) [9j/1C39, 7α,12α-Diacetoxy-5β-cholan-24-oic acid-3-spiro-6′-(1′,2′,4′,5′-tetraoxacyclohexane)-3′-spiro-1″-((4″S or R)-ethyl)cyclohexane] | 0.95 µg/mL (≈ 1.46 µM) | 6.25 µg/mL (≈ 9.63 µM) | 95% | 0.15 | 0.00936 µg/mL | 0.00638 µg/mL | 1.47 | – | – | – | – | – | – |
| CCC1CCC2(CC1)OOC1(CC[C@]3(C)C4C[C@H](OC(C)=O)[C@@]5(C)C(CC[C@@H]5C(C)CCC(N)=O)C4[C@H](OC(C)=O)C[C@@H]3C1)OO2 (single isomer, unassigned) [25/1C35, 7α,12α-Diacetoxy-5β-cholan-24-amide-3-spiro-6′-(1′,2′,4′,5′-tetraoxacyclohexane)-3′-spiro-1″-((4″R or S)-ethyl)cyclohexane] | 4.65 µg/mL (≈ 7.18 µM) | – | – | 1.48 | – | 0.00544 µg/mL | 1.27 | 3.13 µg/mL (≈ 4.83 µM) | 100% | 0.00693 µg/mL (≈ 0.0107 µM) | – | – | – |
| CCC1CCC2(CC1)OOC1(CC[C@]3(C)C4C[C@H](OC(C)=O)[C@@]5(C)C(CC[C@@H]5C(C)CCC(=O)NC)C4[C@H](OC(C)=O)C[C@@H]3C1)OO2 (single isomer, unassigned) [30/1C41, N-Methyl-7α,12α-Diacetoxy-5β-cholan-24-amide-3-spiro-6′-(1′,2′,4′,5′-tetraoxacyclohexane)-3′-spiro-1″-((4″S or R)-ethyl)cyclohexane] | – | 3.13 µg/mL (≈ 4.73 µM) | 99% | 0.50 | 0.00407 µg/mL | 0.0185 µg/mL | 0.22 | – | – | – | 1.59 µg/mL (≈ 2.4 µM) | – | – |
| CC(=O)O[C@H]1CC2C(C3CC[C@H](C(C)CCC(N)=O)[C@]31C)[C@H](OC(C)=O)C[C@@H]1CC3(CC[C@]21C)OOC1(CCC(C)CC1)OO3 (stereo partly drawn) [21/1C30, 7α,12α-Diacetoxy-5β-cholan-24-amide-3-spiro-6′-(1′,2′,4′,5′-tetraoxacyclohexane)-3′-spiro-1″-((4″S)-methyl)cyclohexane] | – | 6.25 µg/mL (≈ 9.86 µM) | 99% | 0.39 | 0.00894 µg/mL | 0.0127 µg/mL | 0.70 | – | – | – | 2.43 µg/mL (≈ 3.83 µM) | – | – |
| CNC(=O)CCC(C)[C@H]1CCC2C3C(C[C@H](OC(C)=O)[C@@]21C)[C@@]1(C)CCC2(C[C@H]1C[C@H]3OC(C)=O)OOC1(CCC(C)CC1)OO2 (stereo partly drawn) [22/1C31, N-Methyl-7α,12α-diacetoxy-5β-cholan-24-amide-3-spiro-6′-(1′,2′,4′,5′-tetraoxacyclohexane)-3′-spiro-1″-((4″S)-methyl)cyclohexane] | – | 6.25 µg/mL (≈ 9.65 µM) | 99% | 0.29 | 0.00769 µg/mL | 0.01079 µg/mL | 0.71 | – | – | – | 1.83 µg/mL (≈ 2.82 µM) | – | – |
| NNC(=O)c1ccncc1 [Isoniazid, reference compound] | > 1000 µg/mL | – | – | – | – | – | – | 0.025 to 0.05 µg/mL (≈ 0.182 to 0.365 µM) | – | – | – | 0.05 µg/mL and 0.36 µM | > 40,000 |
